Measured values taken from patent US11566226B2, “Natural killer cells” (Imperial College of Science, Technology and Medicine, priority 2017, dated 2023).

B1: rDLL1: recombinant delta-like ligand 1 protein (R&D Systems), coated on culture plates (protein, UniProt O00548 18-723, looked up)
Delta-like protein 1: QVWSSGVFELKLQEFVNKKGLLGNRNCCRGGAGPPPCACRTFFRVCLKHYQASVSPEPPCTYGSAVTPVLGVDSFSLPDGGGADSAFSNPIRFPFGFTWPGTFSLIIEALHTDSPDDLATENPERLISRLATQRHLTVGEEWSQDLHSSGRTDLKYSYRFVCDEHYYGEGCSVFCRPRDDAFGHFTCGERGEKVCNPGWKGPYCTEPICLPGCDEQHGFCDKPGECKCRVGWQGRYCDECIRYPGCLHGTCQQPWQCNCQEGWGGLFCNQDLNYCTHHKPCKNGATCTNTGQGSYTCSCRPGYTGATCELGIDECDPSPCKNGGSCTDLENSYSCTCPPGFYGKICELSAMTCADGPCFNGGRCSDSPDGGYSCRCPVGYSGFNCEKKIDYCSSSPCSNGAKCVDLGDAYLCRCQAGFSGRHCDDNVDDCASSPCANGGTCRDGVNDFSCTCPPGYTGRNCSAPVSRCEHAPCHNGATCHERGHRYVCECARGYGGPNCQFLLPELPPGPAVVDLTEKLEGQGGPFPWVAVCAGVILVLMLLLGCAAVVVCVRLRLQKHRPPADPCRGETETMNNLANCQREKDISVSIIGATQIKNTNKKADFHGDHSADKNGFKARYPAVDYNLVQDLKGDDTAVRDAHSKRDTKCQPQGSSGEEKGTPTTLRGGEASERKRPDSGCSTSKDTKYQSVYVISEEKDECVIATEV

Key:
E4bp4 = conditions: cited from earlier work
HPCs = assay: NK cell production from HPCs treated with SR8278 and/or cultured on rDLL4 (flow cytometry); assay type: cell-based, mouse; conditions: SR8278 on day 2 of culture, no rDLL4; average of triplicate experiments
Method: HPCs were cultured in four sets of conditions in addition to control (non-treated) conditions: (i) treated with SR8278 on day 2 of culture (no recombinant DLL4, rDLL4); (ii) cultured on rDLL4 (no SR8278); (iii) cultured on rDLL4 and treated with SR8278 on day 0 of culture; or (iv) treated with SR8278 on day 0 of culture, cultured on rDLL4 from day 2. Aside from the different treatments, the culture conditions were otherwise identical to those previously described for NK cell production from HPCs.
This experiment was repeated with an expanded set of culture conditions, as set out in FIG. 13. The results of this duplicate experiment are illustrated in FIG. 14.
Lineage negative HPCs were purified from mouse bone marrow by crushing the leg bones in Phosphate-buffered Saline (PBS) with 2% fetal calf serum (FCS) (STEMCELL Technologies), topped up to 40 ml with magnetic-activated cell sorting (MACS) buffer (PBS, 2 mM EDTA, 0.5% BSA, sterile and filtered) and centrifuged at 800 g for 2 minutes. […]
(§1) Cells to be analysed by flow cytometry were passed through 40 μm cell strainers to remove clumps and washed with PBS buffer, centrifuged at 800 g for 2 minutes and resuspended in 100 μl fluorescent activated cell sorting (FACS) buffer (PBS plus 1% BSA) with appropriate fluorochrome conjugated antibodies at a dilution of 1 in 300. […]

human HPCs = human HPCs cultured in vitro; previously demonstrated; cited from earlier work
HPC culture = conditions: previously demonstrated, cited from earlier work
E4bp4−/− Lin− BM cells = assay: NK cell development from E4bp4−/− Lin− BM cells on rDLL1/rDLL4-coated plates; assay type: cell-based, mouse; conditions: plates coated with 10 μg/ml ligand, first 7 days of culture, then IL-15
Method: As E4bp4 appeared to regulate Notch1 expression, it was speculated that enhanced Notch signalling, at an early stage, could potentially affect the development of NK cells from E4bp4^−/− HPCs. To study NK cell development from HPCs in the presence or absence of Notch signalling, Lin^− BM cells were cultured on either OP9 stromal cells or OP9-DL1 cells (that express the Notch ligand delta-like 1) (FIG. 10C). Subsequently, cells were transferred onto fresh OP9 and cultured in the presence of IL-15 (FIG. 11A). When E4bp4^−/− cells were grown on control OP9, no NK cell development was observed, but when the E4bp4^−/− cells were grown on OP9-DL1 for the first part of the culture, remarkably, NK cell development was rescued (FIG. 11B). The same result was not observed when the cells were grown on OP9-DL1 for the second part of the culture (FIG. 11B). To eliminate the influence of stromal cells, tissue culture plates were coated with either recombinant delta-like ligand 1 (rDLL1) or rDLL4 protein. […]
as §1

| Molecule | E4bp4 expression (E4bp4) | % of NK cells produced (HPCs) [%] | Human NK cell development (human HPCs) | Optimum dose for in vitro NK cell production (HPC culture; added to the HPC culture, optimum time Day 2) [µM] | Increase of production of NK cells (HPC culture; upon administration of SR8278) | Rescue of NK cell production in the absence of E4bp4 (E4bp4−/− Lin− BM cells) |
| --- | --- | --- | --- | --- | --- | --- |
| CCOC(=O)C1Cc2ccccc2CN1C(=O)c1ccc(SC)s1 (stereo not drawn) [SR8278, 1,2,3,4-Tetrahydro-2-[[5-(methylthio)-2-thienyl]carbonyl]-3-isoquinolinecarboxylic acid ethyl ester] | increased | 57.5 | significantly increase | 10 | more than 2 fold |  |
| B1 |  |  |  |  |  | Only a very partial rescue |
